Assay results as given in US7923465B2, “Cannabinoid receptor ligands, pharmaceutical compositions containing them, and process for their preparation” (priority 2005, dated 2011).
Like-named read-outs stand apart in the source and are kept apart here.

Experiments:
hCB2 = hCB2 (Homo sapiens, UniProt P34972); test: In vitro binding assay using hCB2-CHO membranes, [3H]-CP-55,940 displacement (Protocol IV); set-up: expressed in transfected cells; host or cells: CHO (hCB2-CHO, generated in-house); details: 1 h, read-out: % Displacement Protocol IV
Experimental: IV. Protocol for In Vitro Assay Using hCB2-CHO Membranes:
In this assay, [^3H]-CP-55,940 was used as the radioligand to bind human CB2 receptor expressed on the membranes from CHO cells (hCB2-CHO cell line was generated in-house) which can be displaced by unlabeled ligands having affinity to the CB2 receptor.
The assay was performed according to the modified method of Ross et al., 1999 (Br. J. Pharmacol. 128, 735-743). The reaction was set up in a total volume of 200 μl in PEI (0.2%) precoated Millipore GFB filter plates. 1 mM stocks of test compounds were prepared in DMSO and tested at a final concentration of 300 nM. The non-specific binding was determined by 0.5 μM CP-55, 940. The total reaction mixture contained Tris-BSA buffer (50 mM Tris, 5 mM MgCl2, 1 mM EDTA, pH 7.4 with 0.1% BSA), unlabelled CP-55, 940 (0.5 μM) or test samples, [^3H]-CP-55, 940 (0.75 nM) and 25-50 μg of human CB2 receptor preparation. The assay mixture (with or without the test compound) was incubated at 30° C. for 1 hour. The reaction was stopped by rapid filtration under vacuum and the radioactivity on the filters was measured by liquid scintillation counting.
The percent (%) displacement by a test ligand was calculated by comparing the specific bound values.

[1] = hCB2-CHO membranes, [3H]-CP-55,940 displacement

Chain of hCB2 (P34972 whole entry): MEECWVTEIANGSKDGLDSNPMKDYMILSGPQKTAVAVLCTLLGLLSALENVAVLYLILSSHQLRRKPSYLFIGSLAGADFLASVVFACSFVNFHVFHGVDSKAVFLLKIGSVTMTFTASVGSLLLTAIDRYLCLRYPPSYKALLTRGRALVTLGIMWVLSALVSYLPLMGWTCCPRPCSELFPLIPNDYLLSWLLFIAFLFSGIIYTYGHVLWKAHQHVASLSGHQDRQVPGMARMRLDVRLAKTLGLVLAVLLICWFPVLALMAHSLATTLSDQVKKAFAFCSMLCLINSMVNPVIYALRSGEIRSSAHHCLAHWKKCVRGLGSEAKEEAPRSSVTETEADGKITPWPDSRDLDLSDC

CC12CCC(C1)C(C)(C)C2NC(=O)c1nn(-c2ccc(F)cc2F)c2c1C1CCC2(C)C1(C)C (centres unmarked) [Example 406, N(3)-(1,3,3-Trimethylbicyclo[2.2.1]hept-2-yl)-1-(2,4-difluorophenyl)-7,8,8-trimethyl-4,5,6,7-tetrahydro-1H-4,7-methano-indazole-3-carboxamide]
inhibition at 0.3 µM (hCB2): 94.3% | melting point: 171 to 173 °C

CC12CCC(C1)C(C)(C)C2NC(=O)c1nn(-c2ccc(F)cc2F)c2c1C1CCC2C1 (centres unmarked) [Example 296, N(3)-(1,3,3-Trimethylbicyclo[2.2.1]hept-2-yl)-1-(2,4-difluorophenyl)-4,5,6,7-tetrahydro-1H-4,7-methano-indazole-3-carboxamide]
inhibition at 0.3 µM (hCB2): 95.9% | melting point: 114 to 117 °C

CC(C)(NC(=O)c1nn(-c2ccc(F)cc2F)c2c1C1CCC2C1)c1ccccc1Cl (centres unmarked) [Example 295, N5-[1-(2-Chlorophenyl)-1-methylethyl]-3-(2,4-difluorophenyl)-3,4-diazatricyclo[5.2.1.0^2,6]deca-2(6),4-diene-5-carboxamide]
inhibition at 0.3 µM (hCB2): 100% | melting point: 176 to 179 °C

O=C(NC1C2CC3CC(C2)CC1C3)c1nn(-c2ccc(F)cc2)c2c1C1CCC2C1 (centres unmarked) [Example 281, N5-(Adamantan-2-yl)-3-(4-fluorophenyl)-3,4-diazatricyclo[5.2.1.0^2,6]deca-2(6),4-diene-5-carboxamide]
inhibition at 0.3 µM (hCB2): 97.1% | melting point: 196 to 198 °C

O=C(NC1C2CC3CC(C2)CC1C3)c1nn(-c2ccc(F)cc2F)c2c1C1CCC2C1 (centres unmarked) [Example 309, N5-(2-Adamantyl)-3-(2,4-difluorophenyl)-3,4-diazatricyclo[5.2.1.0^2,6]deca-2(6),4-diene-5-carboxamide]
inhibition at 0.3 µM (hCB2): 98.5% | melting point: 159 to 161 °C

CC12CCC(c3c(C(=O)NNc4ccccc4F)nn(-c4ccc(Cl)cc4Cl)c31)C2(C)C (centres unmarked) [Example 402, N(3)-[(2-Fluorophenyl)amino]-1-(2,4-Dichlorophenyl)-7,8,8-trimethyl-4,5,6,7-tetrahydro-1H-4,7-methano-indazole-3-carboxamide]
inhibition at 0.3 µM (hCB2; [1]): 2.66% | melting point: 72 to 80 °C

CCC(CC)(NC(=O)c1nn(-c2ccc(F)cc2F)c2c1C1CCC2C1)c1ccccc1 (centres unmarked) [Example 299, N5-(1-Ethyl-1-phenylpropyl)-3-(2,4-difluorophenyl)-3,4-diazatricyclo[5.2.1.0^2,6]deca-2(6),4-diene-5-carboxamide]
inhibition at 0.3 µM (hCB2): 77.6% | melting point: 45 to 48 °C

CC(C)(NC(=O)c1nn(-c2ccc(F)cc2F)c2c1C1CCC2c2ccccc21)c1ccccc1 (centres unmarked) [Example 509, N12-(1-Methyl-1-phenylethyl)-10-(2,4-difluorophenyl)-10,11-diazatetracyclo[6.5.2.0^2,7.0^9,13]pentadeca-2,4,6,9(13),11-pentaene-12-carboxamide]
inhibition at 0.3 µM (hCB2): 67.2% | melting point: 175 to 178 °C

CCC(C)(C)NC(=O)c1nn(-c2ccc(F)cc2F)c2c1C1CCC2C1 (centres unmarked) [Example 313, N(3)-(tert-Pentyl)-1-(2,4-difluorophenyl)-4,5,6,7-tetrahydro-1H-4,7-methano-indazole-3-carboxamide]
inhibition at 0.3 µM (hCB2): 98.2% | melting point: 78 to 80 °C

O=C(NC12CC3CC(CC(O)(C3)C1)C2)c1nn(-c2ccc(F)cc2F)c2c1C1CC3CC(C1)CC2C3 [Example 156, N7-(3-Hydroxyadamantan-1-yl)-5-(2,4-difluorophenyl)-5,6-diazatetracyclo[7.3.1.1^3,11.0^4,8]tetradeca-4(8),6-diene-7-carboxamide]
inhibition at 0.3 µM (hCB2): 89.3% | melting point: 240 to 243 °C

CC(C)(NC(=O)c1nn(-c2ccc(F)cc2)c2c1C1CCC2C1)c1ccccc1 (centres unmarked) [Example 282, N5-(1-Methyl-1-phenylethyl)-3-(4-fluorophenyl)-3,4-diazatricyclo[5.2.1.0^2,6]deca-2(6),4-diene-5-carboxamide]
inhibition at 0.3 µM (hCB2): 92.3% | melting point: 119 to 122 °C

CC[C@H](NC(=O)c1nn(-c2ccc(F)cc2F)c2c1C1CC3CC(C1)CC2C3)c1ccccc1 [Example 152, N(7)-[(S)-1-Phenylpropyl]-5-(2,4-difluorophenyl)-5,6-diazatetracyclo[7.3.1.1^3,11.0^4,8]tetradeca-4(8),6-diene-7-carboxamide]
inhibition at 0.3 µM (hCB2): 60.3% | melting point: 127 to 129 °C

COC(=O)[C@H](NC(=O)c1nn(-c2ccc(F)cc2F)c2c1C1CCC2(C)C1(C)C)c1ccccc1 (stereo partly drawn) [Example 409, Methyl (2R)-2-[1-(2,4-difluorophenyl)-7,8,8-trimethyl-4,5,6,7-tetrahydro-1H-4,7-methano-indazole-3-carboxamido]-2-phenylethanoate]
inhibition at 0.3 µM (hCB2; [1]): 65.3% | melting point: 107 to 109 °C

O=C(NCc1ccc(Cl)cc1)c1nn(-c2ccc(F)cc2F)c2c1C1CCC2C1 (centres unmarked) [Example 298, N5-(4-Chlorobenzyl)-3-(2,4-difluorophenyl)-3,4-diazatricyclo[5.2.1.0^2,6]deca-2(6),4-diene-5-carboxamide]
inhibition at 0.3 µM (hCB2; [1]): 11.2% | melting point: 121 to 125 °C

O=C(NCc1cccnc1)c1nn(-c2ccc(Cl)cc2)c2c1C1CC3CC(C1)CC2C3 [Example 104, N(7)-(3-Pyridylmethyl)-5-(4-chlorophenyl)-5,6-diazatetracyclo[7.3.1.1^3,11.0^4,8]tetradeca-4(8),6-diene-7-carboxamide]
inhibition at 0.3 µM (hCB2; [1]): 20.2% | melting point: 180 °C

CC1(NC(=O)c2nn(-c3ccc(F)cc3F)c3c2C2CCC3C2)C2CC3CC(C2)CC1C3 (centres unmarked) [Example 310, N5-(2-Methyl-2-adamantyl)-3-(2,4-difluorophenyl)-3,4-diazatricyclo[5.2.1.0^2,6]deca-2(6),4-diene-5-carboxamide]
inhibition at 0.3 µM (hCB2): 94.2% | melting point: 60 °C

O=C(NC12CC3CC(CC(C3)C1)C2)c1nn(-c2ccc(F)cc2)c2c1C1CCC2C1 (centres unmarked) [Example 283, N5-(Adamantan-1-yl)-3-(4-fluorophenyl)-3,4-diazatricyclo[5.2.1.0^2,6]deca-2(6),4-diene-5-carboxamide]
inhibition at 0.3 µM (hCB2): 94.8% | melting point: 189 to 191 °C

CC(C)(NC(=O)c1nn(-c2ccc(F)cc2F)c2c1C1CC3CC(C1)CC2C3)c1ccccc1Cl [Example 153, N7-[1-(2-Chlorophenyl)-1-methylethyl]-5-(2,4-difluorophenyl)-5,6-diazatetracyclo[7.3.1.1^3,11.0^4,8]tetradeca-4(8),6-diene-7-carboxamide]
inhibition at 0.3 µM (hCB2; [1]): 99.5% | melting point: 145 to 147 °C

CCC(C)(C)NC(=O)c1nn(-c2ccc(F)cc2F)c2c1C1CCC2CC1 [Example 802, N(5)-(tert-Pentyl)-3-(2,4-difluorophenyl)-3,4-diazatricyclo[5.2.2.0^2,6]undeca-2(6),4-diene-5-carboxamide]
inhibition at 0.3 µM (hCB2): 100% | melting point: 102 to 105 °C

CC(C)(NC(=O)c1nn(-c2ccc(F)cc2F)c2c1C1CC3CC(C1)CC2C3)c1ccccc1 [Example 148, N(7)-(1-Methyl-1-phenylethyl)-5-(2,4-difluorophenyl)-5,6-diazatetracyclo[7.3.1.1^3,11.0^4,8]tetradeca-4(8),6-diene-7-carboxamide]
inhibition at 0.3 µM (hCB2): 79.2% | melting point: 150 to 152 °C

CC12CCC(c3c(C(=O)NC45CC6CC(CC(C6)C4)C5)nn(-c4ccc(F)cc4F)c31)C2(C)C (centres unmarked) [Example 405, N(3)-(Adamantan-1-yl)-1-(2,4-difluorophenyl)-7,8,8-trimethyl-4,5,6,7-tetrahydro-1H-4,7-methano-indazole-3-carboxamide]
inhibition at 0.3 µM (hCB2): 87.9% | melting point: 162 to 165 °C

O=C(NCC1CCCO1)c1nn(-c2ccc(F)cc2F)c2c1C1CCC2C1 (centres unmarked) [Example 322, N(3)-(Tetrahydro-2-furanylmethyl)-1-(2,4-difluorophenyl)-4,5,6,7-tetrahydro-1H-4,7-methano-indazole-3-carboxamide]
inhibition at 0.3 µM (hCB2): 43.4% | melting point: 91 to 93 °C

O=C(NCc1c(F)cccc1F)c1nn(-c2ccc(Cl)cc2)c2c1C1CC3CC(C1)CC2C3 [Example 115, N(7)-(2,6-Difluorobenzyl)-5-(4-chlorophenyl)-5,6-diazatetracyclo[7.3.1.1^3,11.0^4,8]tetradeca-4(8),6-diene-7-carboxamide]
melting point: 166 to 167 °C

CC12CCC(c3c(C(=O)Nc4ccccc4)nn(-c4ccc(Cl)cc4Cl)c31)C2(C)C (centres unmarked) [Example 401, N(3)-Phenyl-1-(2,4-dichlorophenyl)-7,8,8-trim ethyl-4,5,6,7-tetrahydro-1H-4,7-methano-indazole-3-carboxamide]
melting point: 112 to 115 °C

C[C@@H](NC(=O)c1nn(-c2ccc(F)cc2F)c2c1C1CCC2C1)c1ccccc1 (some centres unmarked) [Example 293, N(3)-(R-1-phenylethyl)-1-(2,4-difluorophenyl)-4,5,6,7-tetrahydro-1H-4,7-methano-indazole-3-carboxamide]
melting point: 40 to 45 °C
